# Results as given in paper PMC7060258 (Scientific Reports, 2020).
# pKd: −log10 of the molar value. No end group written: not given here.
# How the values were obtained:
# rKv1.2 = assay: Two-electrode voltage clamp, rKv1.2 in X. laevis oocytes; format: cell-based; conditions: 10 μM, 18–22 °C, n ≥ 3
# Experimental: (§1) For the expression of the voltage-gated potassium channels (rKv1.1, rKv1.2, hKv1.3, rKv1.4, rKv1.5, rKv1.6, Shaker IR and hERG) in X. laevis oocytes, the linearized plasmids were transcribed using the T7 or SP6 mMESSAGE-mMACHINE transcription kit (Ambion, USA). The harvesting of stage V–VI oocytes from an anaesthetized female X. laevis frog was previously described. Oocytes were injected with 50 nl of cRNA at a concentration of 1 ng/nl using a micro-injector (Drummond Scientific, USA). The oocytes were incubated in a solution containing (in mM): NaCl, 96; KCl, 2; CaCl2, 1.8; MgCl2, 2; HEPES, 5 (pH 7.4), supplemented with 50 mg/l gentamycin sulfate.
# (§2) Two-electrode voltage-clamp recordings were performed at room temperature (18–22 °C) using a Geneclamp 500 amplifier (Molecular Devices, USA) controlled by a pClamp data acquisition system (Axon Instruments, USA), as described in[47]. Whole cell currents from oocytes were recorded 1–4 days after injection. Bath solution composition was ND96 (in mM): NaCl, 96; KCl, 2; CaCl2, 1.8; MgCl2, 2 and HEPES, 5 (pH 7.4). Voltage and current electrodes were filled with 3 M KCl. The resistances of both electrodes were kept between 0.7 and 1.5 MΩ. […] All data were analysed using pClamp Clampfit 10.0 (Molecular Devices, Downingtown, PA, USA) and Origin 7.5 software (Originlab, Northampton, MA, USA).
# [1] = test system: murine neuroblastoma Neuro2a cells; assay: 6-OHDA-induced cytotoxicity, cell viability (MTT); format: cell-based; conditions: for Increase of cell viability relative to cells treated with 6-OHDA: 10 μM peptide, 30 min before 6-OHDA 25 µM, mean of three independent experiments
# Experimental: Effects of rHCIQ2c1 and rHCIQ4c7 were studied using murine neuroblastoma Neuro2a cells in the presence of 6-OHDA (25 µM). After incubation of Neuro2a cells with recombinant peptides and 6-OHDA for 24 h, the cell viability was evaluated using MTT assay.
# The cytoprotective activities of peptides was examined, as described previously. Neuro2a murine neuroblastoma cells (ATCC CCL-131) (American Type Culture Collection, Virginia, USA) were cultivated in DMEM medium (BioloT, Russia) with 10% of fetal bovine serum (FBS, BioloT, Russia) and 80 µg/ml gentamicine (BioloT, Russia). The cells were seeded onto 96-well plate at concentration of 1 × 10^3 cells per well. Substances were added at different concentrations, and then cells were incubated for 30 min at 37 °C and 5% CO2. Cells were treated with 6-OHDA (25 μM) for 24 h at 37 °C with 5% CO2. Thereafter, medium was replaced with clean serum-free medium, and cells were treated with 3-(4,5-dimethylthiazol-2-yl)-2,5-diphenyltetrazolium bromide (MTT) for 4 h[77]. Then the medium was collected and whole cells were lysed in 100% dimethylsulfoxide (DMSO), the absorbance was measured at 570 nm using Multiscan FC (Thermo Fisher Scientific, USA). […] The results were expressed as the mean ± SD of three independent experiments.
# hERG = assay: Two-electrode voltage clamp, hERG in X. laevis oocytes; format: cell-based; conditions: 10 μM, 18–22 °C, n ≥ 3
# Experimental: as §1, §2
# Shaker IR = assay: Two-electrode voltage clamp, Shaker IR in X. laevis oocytes; format: cell-based, Drosophila; conditions: 10 μM, 18–22 °C, n ≥ 3
# Experimental: as §1, §2
# cathepsin G = assay: SPR interaction with cathepsin G; format: binding; conditions: for SPR binding to cathepsin G (in words): peptide immobilized on CM4 chip
# Experimental: The interaction of the peptides with serine proteinases (trypsin, α-chymotrypsin, human neutrophil elastase, pancreatic kallikrein and cathepsin G) was studied using the surface plasmon resonance (SPR) method. The peptides were immobilized on a CM4 sensor chip. […] Kinetic parameters were calculated at 25 °C. Obtained data indicated the formation of tight complexes and eliminated non-specific binding (Table 2).
# The study of the interaction of serine proteinases with rHCIQ2c1 and rHCIQ4c7 was performed on SPR biosensor Biacore 3000 (GE Healthcare, USA) running under the program “Biacore 3000 Control Software v.1.0”. The evaluation of data was carried out using “Biacore Evaluation v.4.1”. Peptides were covalent immobilized on carboxymethylated surface of the Biacore CM4 sensor chip (GE Healthcare, USA) activated by EDC/NHS (N-hydroxysuccinimide/1-ethyl-3-(3-dimethylaminopropyl)carbodiimide hydrochloride) mixture by the injection of peptide solution (100 µg/ml) in 10 mM sodium acetate (pH 5.5) during 10 min with flow rate 5 µl/min. Quantities of immobilized peptides were 970 RU (resonance units, 1 RU corresponds 1 pg peptide) for rHCIQ2c1 and 460 RU for rHCIQ4c7. In all of the experiments, the flow cell 1 (Fc1) without the immobilized polypeptides was considered as the reference cell for the correction of the signal responses. HBS (HEPES buffered saline-NaCl): 0.15 M NaCl, 0.01 M HEPES, pH 7.4 (cat. no. BR-1003-69, GE Healthcare, USA) was used as the running buffer for the SPR assays. Protease solutions at concentrations from 1 nM to 5 μM were passed through measuring and control biosensor cells at 25 °C during 5 min with a flow rate 5 µl/min. Further complex breakdown was recorded during at most 10 min. After each cycle of SPR measurement, the sensing surface was regenerated by the injection of 50 mM NaOH for 0.5 min at a flow rate of 50 μl/min. Changes in Gibbs free energy (ΔG) at 25 °C were calculated by the following equation:1 ΔG=RTlnKD, where KD is the dissociation constant. Changes in enthalpy (ΔH) and entropic term (−TΔS) were calculated from the linear equation:2 ΔG=ΔH−TΔS, using the liner approximation of temperature dependence of ΔG (Van’t Hoff diagram).
# rKv1.5 = assay: Two-electrode voltage clamp, rKv1.5 in X. laevis oocytes; format: cell-based; conditions: 10 μM, 18–22 °C, n ≥ 3
# Experimental: as §1, §2
# [2] = cathepsin G, SPR Biacore 3000, peptide immobilized on CM4 chip, HBS pH 7.4, 25 °C, protease 1 nM to 5 μM
Substance,Activity on Kv1.2 (rKv1.2),"Increase of cell viability relative to cells treated with 6-OHDA ([1]; 24 h, MTT)","Significance of effect on viability of 6-OHDA-treated cells ([1]; 10 μM, 6-OHDA 25 µM, 24 h, * p < 0.05)","Toxicity to Neuro2a cells ([1]; 10 μM, MTT)","Concentration of maximum cytoprotective activity ([1]; 6-OHDA 25 µM, 24 h, MTT)","Dose-response of cytoprotective effect ([1]; 6-OHDA 25 µM, 24 h, MTT)",Activity on hERG (hERG),Activity on Shaker IR (Shaker IR),SPR binding to cathepsin G (in words) (cathepsin G),"KA, association constant (cathepsin G; cathepsin G, SPR Biacore 3000, peptide immobilized on CM4 chip, HBS pH 7.4, 25 °C)","ka, association rate constant (cathepsin G; [2])","kd, dissociation rate constant (cathepsin G; [2])","pKd (cathepsin G; cathepsin G, SPR Biacore 3000, peptide immobilized on CM4 chip, HBS pH 7.4, 25 °C, read-out: KD, dissociation constant)",Activity on Kv1.5 (rKv1.5)
"rHCIQ2c1: recombinant Kunitz-peptide of Heteractis crispa, most prevalent isoform, mature peptide 58 aa, expressed in E. coli (IQGNICSEPKKVGRCRGSFPRFYFDSETGKCTPFIYGGCGGNGNNFETLHACRAICRA; ends and bridges not checked; cysteine pairing not given here)",neither 10 μM of rHCIQ2c1 nor rHCIQ4c7 exerted any activity on the Kv channels,47%,The reliable effect was revealed,non-toxic,10 µM,linear dose-dependent character,neither 10 μM of rHCIQ2c1 nor rHCIQ4c7 exerted any activity on the Kv channels,neither 10 μM of rHCIQ2c1 nor rHCIQ4c7 exerted any activity on the Kv channels,specifically binds to all target proteinases,3.58e+09 M⁻¹,1.29e+06 s/M,0.000359 s⁻¹,9.55,neither 10 μM of rHCIQ2c1 nor rHCIQ4c7 exerted any activity on the Kv channels
"rHCIQ4c7: recombinant Kunitz-peptide of Heteractis crispa, isoform with the rare substitution Gly17Glu",neither 10 μM of rHCIQ2c1 nor rHCIQ4c7 exerted any activity on the Kv channels,14%,,non-toxic,,,neither 10 μM of rHCIQ2c1 nor rHCIQ4c7 exerted any activity on the Kv channels,neither 10 μM of rHCIQ2c1 nor rHCIQ4c7 exerted any activity on the Kv channels,bounds to trypsin and elastase only,,,,,neither 10 μM of rHCIQ2c1 nor rHCIQ4c7 exerted any activity on the Kv channels
